Results published in patent publication US12023333B2, “Phenyl-sulfamoyl.benzoyc acids as ERAP1 modulators” (GREY WOLF THERAPEUTICS LIMITED, priority 2019, dated 2024).

Molecular target: T1, Purified ERAP1(37-941)-10His (ERAP1) (Homo sapiens, UniProt Q9NZ08)
T1 construct: Purified ERAP1(37-941)-10His (ERAP1); 10His (C)
Assay: ERAP1 mediated hydrolysis of an amide substrate measured in a biochemical system (10-mer decapeptide substrate)
Conditions: 10-mer substrate, 23° C. for 1 h, excitation 279 nm and emission 355 nm; read-out: IC50 vs Decapeptide WRVYEKC(Dnp)ALK-acid (where Dnp is Dinitrophenyl maleimide) (10-mer)
Procedure: Biological Assay 1: ERAP1 Mediated Hydrolysis of an Amide Substrate Measured in a Biochemical System
1× Assay buffer (AB): 25 mM Bis-tris propane, 0.05% w/v Hydroxypropylmethylcellulose pH 7.75 made with Optima grade water
Decapeptide WRVYEKC(Dnp)ALK-acid (where Dnp is Dinitrophenyl maleimide) (10-mer) L-Leucine 7-amido-4-methylcoumarin (L-AMC)
12.5 μL ERAP1 enzyme in 1×AB was combined with 250 nL test compound in DMSO. 12.5 μL of either 240 μM L-AMC in 1×AB or 100 μM 10-mer in 1×AB was added to the reaction and incubated at 23° C. for 1 h. For detection, plates were read at excitation 365 nm and emission 442 nm (L-AMC) or excitation 279 nm and emission 355 nm (10-mer). Compound IC50 was determined using a 4 parameter equation.

T1 sequence (Q9NZ08 37-941): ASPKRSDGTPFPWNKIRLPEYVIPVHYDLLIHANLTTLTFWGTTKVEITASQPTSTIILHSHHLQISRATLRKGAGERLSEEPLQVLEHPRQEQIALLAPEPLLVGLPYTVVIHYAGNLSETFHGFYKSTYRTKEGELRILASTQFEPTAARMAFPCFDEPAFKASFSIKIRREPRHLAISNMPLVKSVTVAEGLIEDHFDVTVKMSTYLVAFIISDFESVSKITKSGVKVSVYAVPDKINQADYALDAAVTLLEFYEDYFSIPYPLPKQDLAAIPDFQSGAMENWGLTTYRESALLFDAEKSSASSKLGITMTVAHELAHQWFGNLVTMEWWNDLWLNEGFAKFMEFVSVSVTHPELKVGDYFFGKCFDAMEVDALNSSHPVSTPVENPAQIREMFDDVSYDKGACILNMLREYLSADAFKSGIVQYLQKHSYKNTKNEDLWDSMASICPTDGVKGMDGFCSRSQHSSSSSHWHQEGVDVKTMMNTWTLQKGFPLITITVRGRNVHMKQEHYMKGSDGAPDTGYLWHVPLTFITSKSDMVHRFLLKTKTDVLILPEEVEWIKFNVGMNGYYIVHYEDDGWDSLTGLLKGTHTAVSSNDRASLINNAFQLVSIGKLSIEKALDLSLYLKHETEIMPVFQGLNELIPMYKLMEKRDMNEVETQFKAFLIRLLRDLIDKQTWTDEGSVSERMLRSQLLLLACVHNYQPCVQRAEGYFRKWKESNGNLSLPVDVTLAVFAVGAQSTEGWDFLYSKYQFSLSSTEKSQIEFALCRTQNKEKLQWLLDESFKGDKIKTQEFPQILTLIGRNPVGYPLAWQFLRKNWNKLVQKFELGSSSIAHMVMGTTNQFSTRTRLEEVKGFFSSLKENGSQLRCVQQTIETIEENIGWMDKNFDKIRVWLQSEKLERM

IC50, < 500 nM:
CCc1ccc(C(=O)O)cc1S(=O)(=O)Nc1cc(S(C)(=O)=O)ccc1-c1ccccn1 [Example 71, 4-ethyl-3-(N-(5-(methylsulfonyl)-2-(pyridin-2-yl)phenyl)sulfamoyl)benzoic acid]
O=C(O)c1ccc(C2CC2)c(S(=O)(=O)Nc2cc(C(F)(F)F)ccc2-c2ccccn2)c1 [Example 72, 4-cyclopropyl-3-(N-(2-(pyridin-2-yl)-5-(trifluoromethyl)phenyl)sulfamoyl)benzoic acid]
CCc1ccc(C(=O)O)cc1S(=O)(=O)Nc1cc(C(F)(F)F)ccc1-c1cccn1C [Example 73, 4-ethyl-3-(N-(2-(1-methyl-pyrrol-2-yl)-5-(trifluoromethyl)phenyl)sulfamoyl)benzoic acid]
CS(=O)(=O)c1ccc(-c2cccs2)c(NS(=O)(=O)c2cc(C(=O)O)ccc2C2CC2)c1 [Example 74, 4-cyclopropyl-3-(N-(5-(methylsulfonyl)-2-(thiophen-2-yl)phenyl)sulfamoyl) benzoic acid]
N#Cc1ccc(-c2cccs2)c(NS(=O)(=O)c2cc(C(=O)O)ccc2C2CC2)c1 [Example 75, 3-(N-(5-cyano-2-(thiophen-2-yl)phenyl)sulfamoyl)-4-cyclopropylbenzoic acid]
O=C(O)c1ccc(C2CC2)c(S(=O)(=O)Nc2cc(C(F)(F)F)ccc2-c2cccs2)c1 [Example 76, 4-cyclopropyl-3-(N-(2-(thiophen-2-yl)-5-(trifluoromethyl)phenyl)sulfamoyl)benzoic acid]
CCc1ccc(C(=O)O)cc1S(=O)(=O)Nc1cc(C(F)(F)F)ccc1-c1ccc(C#N)s1 [Example 77, 3-(N-(2-(5-cyanothiophen-2-yl)-5-(trifluoromethyl)phenyl)sulfamoyl)-4-ethylbenzoic acid]
COc1ccc(C(=O)O)cc1S(=O)(=O)Nc1cc(S(C)(=O)=O)ccc1-c1cccs1 [Example 78, 4-methoxy-3-(N-(5-(methylsulfonyl)-2-(thiophen-2-yl)phenyl)sulfamoyl) benzoic acid]
COc1ccc(C(=O)O)cc1S(=O)(=O)Nc1cc(C(F)(F)F)ccc1-c1ccc(C)s1 [Example 79, 4-methoxy-3-(N-(2-(5-methylthiophen-2-yl)-5-(trifluoromethyl)phenyl)sulfamoyl)benzoic acid]
CCc1ccc(C(=O)O)cc1S(=O)(=O)Nc1cc(C#N)ccc1-c1ccc(C)s1 [Example 80, 3-(N-(5-cyano-2-(5-methylthiophen-2-yl)phenyl)sulfamoyl)-4-ethylbenzoic acid]
COc1ccc(C(=O)O)cc1S(=O)(=O)Nc1cc(C#N)ccc1-c1ccc(C)s1 [Example 81, 3-(N-(5-cyano-2-(5-methylthiophen-2-yl)phenyl)sulfamoyl)-4-methoxybenzoic acid]
CS(=O)(=O)c1ccc(-c2ccccn2)c(NS(=O)(=O)c2cc(C(=O)O)ccc2C2CC2)c1 [Example 82, 4-cyclopropyl-3-(N-(5-(methylsulfonyl)-2-(pyridin-2-yl)phenyl)sulfamoyl) benzoic acid]
N#Cc1ccc(-c2ccccn2)c(NS(=O)(=O)c2cc(C(=O)O)ccc2C2CC2)c1 [Example 83, 3-(N-(5-cyano-2-(pyridin-2-yl)phenyl)sulfamoyl)-4-cyclopropylbenzoic acid]
CCc1ccc(C(=O)O)cc1S(=O)(=O)Nc1cc(S(C)(=O)=O)ccc1-c1ccc(C)s1 [Example 84, 4-ethyl-3-(N-(5-(methylsulfonyl)-2-(5-methylthiophen-2-yl)phenyl)sulfamoyl) benzoic acid]
COc1ccc(C(=O)O)cc1S(=O)(=O)Nc1cc(S(C)(=O)=O)ccc1-c1ccc(C)s1 [Example 85, 4-methoxy-3-(N-(5-(methylsulfonyl)-2-(5-methylthiophen-2-yl)phenyl)sulfamoyl)benzoic acid]
